Assay results reported in patent publication US7754747B2, “Oxazolo-naphthyl acids” (Wyeth LLC, priority 2004, dated 2010).

Legend:
[1] = biological target: T1, recombinant human plasminogen activator inhibitor-1 (PAI-1) (Homo sapiens, UniProt P05121); assay: Primary Screen for the PAI-1 Inhibition (residual tPA activity, Spectrozyme-tPA chromogenic substrate); assay type: biochemical; settings: pH 6.6 buffer; for inhibition at 10 µM: 10 μM test compound; for inhibition at 25 µM: 25 μM test compound
T1 construct: purchased Molecular Innovations, Royal Oak, Mich
T1 sequence (P05121 24-402): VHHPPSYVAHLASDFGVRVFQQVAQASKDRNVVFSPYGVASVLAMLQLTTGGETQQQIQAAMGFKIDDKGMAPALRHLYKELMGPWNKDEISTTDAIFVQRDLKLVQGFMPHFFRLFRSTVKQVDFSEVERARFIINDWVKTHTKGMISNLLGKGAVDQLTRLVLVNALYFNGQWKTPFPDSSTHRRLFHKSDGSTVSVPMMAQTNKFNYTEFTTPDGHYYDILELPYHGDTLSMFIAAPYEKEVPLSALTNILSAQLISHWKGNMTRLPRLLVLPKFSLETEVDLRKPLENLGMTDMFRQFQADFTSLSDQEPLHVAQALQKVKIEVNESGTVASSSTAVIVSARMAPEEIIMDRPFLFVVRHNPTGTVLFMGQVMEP
Procedure: Test compounds are dissolved in DMSO at a final concentration of 10 mM, then diluted 100×in physiologic buffer. The inhibitory assay is initiated by the addition of the test compound (1-100 μM final concentration, maximun DMSO concentration of 0.2%) in a pH 6.6 buffer containing 140 Mn recombinant human plasminogen activator inhibitor-1 (PAI-1; Molecular Innovations, Royal Oak, Mich.). Following a 1 hour incubation at room temperature, 70 Mn of recombinant human tissue plasminogen activator (tPA) is added, and the combination of the test compound, PAI-1 and tPA is incubated for an additional 30 minutes. Following the second incubation, Spectrozyme-tPA (American Diagnostica, Greenwich, Conn.), a chromogenic substrate for tPA, is added and absorbance read at 405 nm at 0 and 60 minutes. Relative PAI-1 inhibition is equal to the residual tPA activity in the presence of the test compound and PAI-1. Control treatments include the complete inhibition of tPA by PAI-1 at the molar ratio employed (2:1), and the absence of any effect of the test compound on tPA alone.

human PAI-1 = human PAI-1 (Homo sapiens, UniProt P05121); assay: Assay for determining IC50 of inhibition of PAI-1 (Antibody Assay, active PAI-1 bound to tPA-coated plate); assay type: binding; settings: pH 7.5 buffer, human PAI-1 50 ng/ml
Chain of human PAI-1 (P05121 24-402): as above
Procedure: This assay is based upon the non-SDS dissociable interaction between tPA and active PAI-1. Assay plates are initially coated with human tPA (10 μg/ml). Test compounds of the present invention are dissolved in DMSO at 10 mM, then diluted with physiologic buffer (pH 7.5) to a final concentration of 1-50 μM. Test compounds are incubated with human PAI-1 (50 ng/ml) for 15 minutes at room temperature. The tPA-coated plate is washed with a solution of 0.05% Tween 20 and 0.1% BSA, then the plate is blocked with a solution of 3% BSA. An aliquot of the oxazolo-naphthyl acid/PAI-1 solution is then added to the tPA-coated plate, incubated at room temperature for 1 hour, and washed. Active PAI-1 bound to the plate is assessed by adding an aliquot of a 1:1000 dilution of the 33B8 monoclonal antibody against human PAI-1, and incubating the plate at room temperature for 1 hour (Molecular Innovations, Royal Oak, Mich.). The plate is again washed, and a solution of goat anti-mouse IgG-alkaline phosphatase conjugate is added at a 1:50,000 dilution in goat serum. The plate is incubated 30 minutes at room temperature, washed, and a solution of alkaline phosphatase substrate is added. The plate is incubated 45 minutes at room temperature, and color development is determined at OD405nm. The quantitation of active PAI-1 bound to tPA at varying concentrations of the test compound is used to determine the IC50. Results are analyzed using a logarithmic best-fit equation. The assay sensitivity is 5 ng/ml of human PAI-1 as determined from a standard curve ranging from 0-100 ng/ml.

| inhibition at 10 µM [1] [%] | inhibition at 25 µM [1] [%] | IC50 (human PAI-1) [µM] | melting point [°C] | Compound |
| --- | --- | --- | --- | --- |
| 17 | 65 | 68.4 | 239 to 241 | c1ccc(-c2ncc(-c3ccc4cc(OCc5nnn[nH]5)ccc4c3)o2)cc1 [Example 1, 5-({[6-(2-phenyl-1,3-oxazol-5-yl)-2-naphthyl]oxy}methyl)-1H-tetraazole] |
| 12 | 52 | 19.4 | 238 to 240 | CCCCc1oc2ccccc2c1-c1ncc(-c2ccc3cc(OCc4nnn[nH]4)ccc3c2)o1 [Example 2, 5-[({6-[2-(2-butyl-1-benzofuran-3-yl)-1,3-oxazol-5-yl]-2-naphthyl}oxy)methyl]-1H-tetraazole] |
| 32 | 66 | 26.6 | 174 to 177 | CCCCc1oc2ccccc2c1-c1ncc(-c2ccc3cc(OC(Cc4ccccc4)C(=O)O)ccc3c2)o1 (centres unmarked) [Example 3, 2-({6-[2-(2-butyl-1-benzofuran-3-yl)-1,3-oxazol-5-yl]-2-naphthyl}oxy)-3-phenylpropanoic acid] |
| 23 | 46 | 22.7 | 214 to 216 | CCCCc1oc2ccccc2c1-c1ncc(-c2ccc3cc(OCC(=O)O)ccc3c2)o1 [Example 4, ({6-[2-(2-butyl-1-benzofuran-3-yl)-1,3-oxazol-5-yl]-2-naphthyl}oxy)acetic acid] |
| 1 | 34 | 47.4 | 125 to 127 | O=C(O)C(Cc1ccccc1)Oc1ccc2cc(-c3cnc(-c4cn(Cc5ccccc5)c5ccccc45)o3)ccc2c1 (centres unmarked) [Example 5, 2-({6-[2-(1-benzyl-1H-indol-3-yl)-1,3-oxazol-5-yl]-2-naphthyl}oxy)-3-phenylpropanoic acid] |
| 4 | 28 | – | 238 to 242 | O=C(O)COc1ccc2cc(-c3cnc(-c4cn(Cc5ccccc5)c5ccccc45)o3)ccc2c1 [Example 6, ({6-[2-(1-benzyl-1H-indol-3-yl)-1,3-oxazol-5-yl]-2-naphthyl}oxy)acetic acid] |
| 19 | 61 | – | 244 to 246 | c1ccc(Cn2cc(-c3ncc(-c4ccc5cc(OCc6nnn[nH]6)ccc5c4)o3)c3ccccc32)cc1 [Example 7, 1-benzyl-3-{5-[6-(1H-tetrazol-5-ylmethoxy)-2-naphthyl]-1,3-oxazol-2-yl}-1H-indole] |
| 2 | 75 | – | 149 to 151 | Cn1cc(-c2ncc(-c3ccc4cc(OC(Cc5ccccc5)C(=O)O)ccc4c3)o2)c2ccccc21 (centres unmarked) [Example 8, 2-({6-[2-(1-methyl-1H-indol-3-yl)-1,3-oxazol-5-yl]-2-naphthyl}oxy)-3-phenylpropanoic acid] |
| 3 | 24 | – | 269 to 272 | Cn1cc(-c2ncc(-c3ccc4cc(OCC(=O)O)ccc4c3)o2)c2ccccc21 [Example 9, ({6-[2-(1-Methyl-1H-indol-3-yl)-1,3-oxazol-5-yl]-2-naphthyl}oxy)acetic acid] |
| 16 | 35 | – | 254 to 256 | Cn1cc(-c2ncc(-c3ccc4cc(OCc5nnn[nH]5)ccc4c3)o2)c2ccccc21 [Example 10, 1-methyl-3-{5-[6-(1H-tetrazol-5-ylmethoxy)-2-naphthyl]-1,3-oxazol-2-yl}-1H-indole] |
| 18 | 31 | – | 78 to 82 | O=C(O)C(Cc1ccccc1)Oc1ccc2cc(-c3cnc(Cc4ccccc4)o3)ccc2c1 (centres unmarked) [Example 11, 2-{[6-(2-benzyl-1,3-oxazol-5-yl)-2-naphthyl]oxy}-3-phenylpropanoic acid] |
| 0 | 26 | – | 236 to 238 | O=C(O)COc1ccc2cc(-c3cnc(Cc4ccccc4)o3)ccc2c1 [Example 12, {[6-(2-benzyl-1,3-oxazol-5-yl)-2-naphthyl]oxy}acetic acid] |
| 11 | 23 | – | 227 to 228 | c1ccc(Cc2ncc(-c3ccc4cc(OCc5nnn[nH]5)ccc4c3)o2)cc1 [Example 13, 5-({[6-(2-benzyl-1,3-oxazol-5-yl)-2-naphthyl]oxy}methyl)-1H-tetraazole] |
| 12 | 17 | – | 258 to 260 | O=C(O)COc1ccc2cc(-c3cnc(Cc4ccc5ccccc5c4)o3)ccc2c1 [Example 14, ({6-[2-(2-naphthylmethyl)-1,3-oxazol-5-yl]-2-naphthyl}oxy)acetic acid] |
| 22 | 48 | – | 179 to 182 | c1ccc2cc(Cc3ncc(-c4ccc5cc(OCc6nnn[nH]6)ccc5c4)o3)ccc2c1 [Example 15, 5-[({6-[2-(2-naphthylmethyl)-1,3-oxazol-5-yl]-2-naphthyl}oxy)methyl]-1H-tetrazole] |
| 11 | 16 | – | 235 to 237 | CCCCc1oc2ccccc2c1-c1ncc(-c2ccc3c(Br)c(OCc4nnn[nH]4)ccc3c2)o1 [Example 16, 5-[({1-bromo-6-[2-(2-butyl-1-benzofuran-3-yl)-1,3-oxazol-5-yl]-2-naphthyl}oxy)methyl]-1H-tetrazole] |
| 14 | 20 | – | 251 to 254 | CCCCc1oc2ccccc2c1-c1ncc(-c2ccc3cc(OCc4ccc(C(=O)O)cc4)ccc3c2)o1 [Example 17, 4-[({6-[2-(2-butyl-1-benzofuran-3-yl)-1,3-oxazol-5-yl]-2-naphthyl}oxy)methyl]benzoic acid] |
| 33 | 62 | – | 285 to 287 | CCCCc1oc2ccccc2c1-c1ncc(-c2ccc3cc(OCc4ccc(C(=O)O)cc4C(=O)O)ccc3c2)o1 [Example 18, 4-[({6-[2-(2-butyl-1-benzofuran-3-yl)-1,3-oxazol-5-yl]-2-naphthyl}oxy)methyl]isophthalic acid] |
| 12 | 23 | – | 281 to 283 | CCCCc1oc2ccccc2c1-c1ncc(-c2ccc3c(Br)c(OCc4ccc(C(=O)O)cc4)ccc3c2)o1 [Example 19, 4-[({1-bromo-6-[2-(2-butyl-1-benzofuran-3-yl)-1,3-oxazol-5-yl]-2-naphthyl}oxy)methyl]benzoic acid] |
